Paper PMC7307906, “Macrocyclic Modalities Combining Peptide Epitopes and Natural Product Fragments” (Journal of the American Chemical Society, 2020)
Where a SMILES comes first, the peptide text is derived from it.

How the values were obtained:
human MC1R [1] = target: T1, human MC1R (Homo sapiens, UniProt Q01726); experiment: Melanocortin receptor radioligand binding (SPA, [125I]-NDP-α-MSH displacement), MC1R; conditions: competitive binding, mean (± SEM) of at least three independent experiments, read-out: IC50 hMC1R binding
T1 construct: expressed in transfected cells
T1 sequence (Q01726 whole entry): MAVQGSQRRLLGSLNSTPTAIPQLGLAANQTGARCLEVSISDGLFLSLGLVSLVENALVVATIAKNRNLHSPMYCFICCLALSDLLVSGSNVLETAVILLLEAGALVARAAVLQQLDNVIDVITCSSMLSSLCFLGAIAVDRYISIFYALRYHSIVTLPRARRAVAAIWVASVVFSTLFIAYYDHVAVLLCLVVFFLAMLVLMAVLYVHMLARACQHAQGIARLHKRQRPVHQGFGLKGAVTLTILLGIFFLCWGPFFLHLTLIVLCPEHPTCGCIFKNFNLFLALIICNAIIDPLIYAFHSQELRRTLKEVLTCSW

human MC3R [2] = target: T2, human MC3R (Homo sapiens, UniProt P41968); experiment: Melanocortin receptor radioligand binding (SPA, [125I]-NDP-α-MSH displacement), MC3R; conditions: competitive binding, mean (± SEM) of at least three independent experiments, read-out: IC50 hMC3R binding
T2 construct: expressed in transfected cells
T2 sequence (P41968 whole entry): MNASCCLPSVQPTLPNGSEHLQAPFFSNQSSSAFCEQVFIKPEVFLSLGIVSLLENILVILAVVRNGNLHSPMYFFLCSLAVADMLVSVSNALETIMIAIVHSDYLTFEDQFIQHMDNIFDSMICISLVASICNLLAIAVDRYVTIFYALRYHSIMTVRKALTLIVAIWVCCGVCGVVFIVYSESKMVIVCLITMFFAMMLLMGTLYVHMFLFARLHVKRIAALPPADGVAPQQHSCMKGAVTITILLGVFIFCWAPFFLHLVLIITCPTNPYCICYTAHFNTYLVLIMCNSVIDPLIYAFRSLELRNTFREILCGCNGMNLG

human MC4R [3] = target: T3, human MC4R (Homo sapiens, UniProt P32245); experiment: Melanocortin receptor radioligand binding (SPA, [125I]-NDP-α-MSH displacement), MC4R; conditions: competitive binding, mean (± SEM) of at least three independent experiments, read-out: IC50 hMC4R binding
T3 construct: expressed in transfected cells
T3 sequence (P32245 whole entry): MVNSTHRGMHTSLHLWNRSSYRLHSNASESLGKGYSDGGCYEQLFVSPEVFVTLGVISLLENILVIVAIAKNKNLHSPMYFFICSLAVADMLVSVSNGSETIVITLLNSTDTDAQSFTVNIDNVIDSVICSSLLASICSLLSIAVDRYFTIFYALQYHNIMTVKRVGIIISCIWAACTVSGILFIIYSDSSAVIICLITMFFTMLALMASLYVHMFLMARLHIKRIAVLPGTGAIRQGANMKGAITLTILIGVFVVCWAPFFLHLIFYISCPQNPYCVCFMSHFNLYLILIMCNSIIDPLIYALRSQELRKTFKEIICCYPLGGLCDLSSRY

human MC5R = target: T4, human MC5R (Homo sapiens, UniProt P33032); experiment: Melanocortin receptor radioligand binding (SPA, [125I]-NDP-α-MSH displacement), MC5R; conditions: competitive binding, [125I]-NDP-α-MSH; mean (± SEM) of at least three independent experiments; read-out: IC50 hMC5R binding
T4 construct: expressed in transfected cells; host or cells: HEK293-6E suspension cells, transient expression; membranes
T4 sequence (P33032 whole entry): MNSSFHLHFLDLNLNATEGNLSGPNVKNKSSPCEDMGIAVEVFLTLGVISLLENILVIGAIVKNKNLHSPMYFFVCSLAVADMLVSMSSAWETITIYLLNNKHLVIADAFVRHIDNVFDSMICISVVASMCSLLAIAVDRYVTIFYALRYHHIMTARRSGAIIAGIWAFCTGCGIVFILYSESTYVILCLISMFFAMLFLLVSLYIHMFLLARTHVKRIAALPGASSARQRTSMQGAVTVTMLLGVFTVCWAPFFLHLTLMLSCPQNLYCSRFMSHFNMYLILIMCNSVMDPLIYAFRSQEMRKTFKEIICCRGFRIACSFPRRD

human MC1R [4] = target: T1, human MC1R; experiment: cAMP assay (LANCE) in T-Rex-293 cells expressing MC1R; assay type: cell-based
human MC3R [5] = target: T2, human MC3R; experiment: cAMP assay (LANCE) in T-Rex-293 cells expressing MC3R; assay type: cell-based; conditions: cAMP assay; mean (± SEM) of at least three independent experiments; read-out: EC50 hMC3R cAMP
human MC4R [6] = target: T3, human MC4R; experiment: cAMP assay (LANCE) in T-Rex-293 cells expressing MC4R; assay type: cell-based; conditions: cAMP assay; mean (± SEM) of at least three independent experiments; read-out: EC50 hMC4R cAMP
hMC1−5R = experiment: Melanocortin receptor radioligand binding, result stated for all receptors together; set-up: species or system human; conditions: human MC receptors, radioligand binding
Description: Example concentration response curves for selected PepNats in MC1R, MC3R, MC4R, MC5R radioligand binding assays and MC1R, MC3R, MC4R cAMP assays. Responses were normalized to reference agonist NDP -α-MSH and presented as % effect of control, with full competition in binding defined as -100% and full agonism in cAMP assays defined as […]
binding assay. Threshold to define a compound as active was set to -30% in binding assays and 20% in cAMP assays respectively. Data are from at least three independent experiments and error bars represent ± Standard Error of the […]
% s p e c ific b in d in g o f
(1 picture or pasted object on this page, not shown here) […]
expression, MC1R and MC4R transfected cells were treated with 0.1 ng /mL and MC3R transfected cells with 10 ng/mL doxycyclin, for 24 h before assay.
Melanocortin receptor radioligand binding and cAMP assays.
Binding and cAMP assays were performed as described by Durek et al.7 “A 384-well format scintillation proximity assay (SPA) was used to identify compounds that show competitive binding to the human Melanocortin receptor 1,3,4 or 5 ligand binding domain (LBD). […] The inhibition of the scintillation signal by displacement of [ 125I]- NDP-α-MSH by test compounds were detected by a 1450 MicroBeta Trilux scintillation counter […]
Plates were incubated for 16-23 h in the dark at room temperature before reading on a 1450 […]
Measurements of cAMP production were performed using LANCE® cAMP kits (PerkinElmer) in a total assay volume of 12 µl/well. […] The reaction was stopped with detection buffer containing 10 µM Biotin-cAMP and 15 µM LANCE Eu-W8044 labelled streptavidin (PerkinElmer LANCE cAMP kit). cAMP production was detected by homogenous time resolved fluorescence (HTRF) (λex = 340 nm, λem = 665 and 615 nm) using a Pherastar (BMG Labtech).
PepNats, literature compounds and references were tested in ten-point concentration response (½ log serial dilution) with 100, 10 or 1 µM as final start concentrations. Raw data output was analyzed in Screener software (Genedata AG) and pEC50 and pIC50 values calculated using a four-

Q: Which results are given for `C[C@@H]1NC(=O)[C@H](CC(N)=O)NC(=O)[C@H](Cc2ccccc2)NC(=O)[C@H](Cc2ccccc2)NC(=O)[C@H](CCCNC(=N)N)NC(=O)[C@@H](NC(=O)[C@@H](N)Cc2ccc(O)cc2)CSSC[C@@H](C(=O)N[C@@H](Cc2ccc(O)cc2)C(N)=O)NC(=O)[C@H](Cc2ccccc2)NC1=O` [compound 28, reference compound] (HELM PEPTIDE1{Y.C.R.F.F.N.A.F.C.Y.[am]}$PEPTIDE1,PEPTIDE1,2:R3-9:R3$$$V2.0)?
A: IC50 (human MC1R [1]): 10000 ± 1000 nM; IC50 (human MC3R [2]): 1600 ± 100 nM; IC50 (human MC4R [3]): 180 ± 10 nM; IC50 (human MC5R): 1600 ± 300 nM; Emax (human MC1R [4]; T-REx-293, read-out: % Effect hMC1R cAMP): 44%; agonistic activity at MC1R (in words) (human MC1R [4]; cAMP assay, hMC1R): weak partial agonistic activity; EC50 (human MC1R [4]; cAMP assay, mean (± SEM) of at least three independent experiments, read-out: EC50 hMC1R cAMP): 1200 ± 400 nM; EC50 (human MC3R [5]): > 100000 nM; EC50 (human MC4R [6]): > 100000 nM; binding to the MC receptors (in words) (hMC1−5R): micromolar affinity
